Laboratory results taken from the NIST ThermoML archive (doi:10.1016/j.fluid.2015.01.010).
Numbers after ± are expanded uncertainties.

Assay: activity coefficient (dimensionless); of the first substance listed, at infinite dilution; xn = mol fraction of the nth substance listed
Details: 101 kPa, Liquid, Chromatography, x1 = 0

activity coefficient (338.15 K)	Structure (SMILES)	activity coefficient (298.15 K)	activity coefficient (299.15 K)	activity coefficient (301.15 K)	activity coefficient (303.15 K)	activity coefficient (305.15 K)	activity coefficient (306.15 K)	activity coefficient (308.15 K)	activity coefficient (311.15 K)	activity coefficient (313.15 K)	activity coefficient (318.15 K)	activity coefficient (323.15 K)	activity coefficient (328.15 K)	activity coefficient (333.15 K)	activity coefficient (310.15 K)	activity coefficient (315.15 K)	activity coefficient (320.15 K)	activity coefficient (325.15 K)	activity coefficient (330.15 K)
	c1ccoc1 [furan] + O	415 ± 20	412 ± 20	403 ± 19	397 ± 19	394 ± 19	380 ± 19	372 ± 19	366 ± 22	356 ± 20									
	CCCCC=O [pentanal] + O	220 ± 8			260 ± 10			276 ± 10		302 ± 12	324 ± 12	339 ± 14	350 ± 14						
	C/C=C/C=O [(E)-2-butenal] + O	39 ± 1.6						42.8 ± 1.6		44.4 ± 1.8	46.2 ± 1.9	47 ± 2.1	47.3 ± 2	48 ± 1.9					
	C=CC=O [2-propenal] + O	20.9 ± 0.8		21.5 ± 0.8	21.4 ± 0.8	21.7 ± 0.8		22.4 ± 0.8		23.1 ± 0.9	24 ± 0.9	24.1 ± 0.9	24.3 ± 0.9	24.4 ± 1	22.6 ± 0.8	23.5 ± 0.9	24.1 ± 0.9	24.3 ± 0.9	24.5 ± 0.9
78 ± 3	CCCCO [butan-1-ol] + O				52 ± 3			57 ± 2		58 ± 3	64 ± 3	69 ± 3	72 ± 3	80 ± 3					
